From patent CN110590914A, “一种抑制和消除幽门螺杆菌生物膜生成的蜂蜜和多肽组合物” (Anhui University of Science and Technology, priority 2019, dated 2019)
Ends that are not written are not given here.

Test system: 幽门螺杆菌SS1菌株
Assay: Inhibition of Helicobacter pylori biofilm formation (crystal violet staining, A595)
Format: cell-based
Settings: peptide 5, 10, 20, 40, 80μg/mL (Fig. 1)

KRIVQRIKDIKP [实施例4] was tested, and the “Concentration dependence of inhibition of biofilm formation” value was “随着多肽的浓度增大，对生物膜生成的抑制率不断增加”.
